Experimental findings from PubChem BioAssay (NCI) are described below.

Among the test systems are UACC-257 melanoma; MALME-3M melanoma; OVCAR-4 ovarian; M14 melanoma; CCRF-CEM leukemia; NCI-H23 lung; SW-620 colon; NCI-H226 lung; RXF 393 renal; NCI-H522 lung.
Test in all cases: NCI-60 cell line screen, 48 h

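96-well plates; 48 h exposure; 5 concentrations. Endpoints by linear interpolation between flanking doses. Not reached: highest tested concentration assigned. The concentration for 50% growth inhibition is given as GI50. TGI marks complete inhibition of growth.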 Bounds are passed on as bounds.

In the case of `COC(=O)c1ccc(C(=O)OC)c2nc3cc(C)ccc3nc12`, the TGI with UACC-257 melanoma, in the test on MALME-3M melanoma, with OVCAR-4 ovarian, in the test with M14 melanoma, with CCRF-CEM leukemia and in the test with NCI-H23 lung was more than 100 µM in each case. In addition, the TGI in the test on SW-620 colon and with NCI-H226 lung was more than 100 µM in each case.
As to `CCCCCCNC(=O)n1cc(F)c(=O)[nH]c1=O`, the GI50 is 4.22 µM in the test on UACC-257 melanoma; 6.22 µM with RXF 393 renal; 14 µM in the test with OVCAR-4 ovarian; 7.77 µM in the test on M14 melanoma; 3.2 µM with CCRF-CEM leukemia; 6.26 µM in the test on NCI-H23 lung. Moreover, the results for the GI50 in the test on NCI-H522 lung, with SW-620 colon and with NCI-H226 lung were 10.7 µM, 3.48 µM and 10.6 µM, respectively. The TGI turned out to be 26.4 µM in the test on UACC-257 melanoma; 20.3 µM in the test on RXF 393 renal; 39.1 µM in the test with OVCAR-4 ovarian; 23.9 µM in the test with M14 melanoma; 26.7 µM in the test on CCRF-CEM leukemia; 49.1 µM in the test on NCI-H23 lung. For the same compound, the TGI in the test with NCI-H522 lung came out at 25 µM; in the test on SW-620 colon, 20.7 µM; in the test on NCI-H226 lung it was 23.3 µM.
As for `CC(=O)c1cccc(-c2cccc(-c3ccn(CCN4CCOCC4)n3)c2)c1`, the GI50 with UACC-257 melanoma, in the test with RXF 393 renal, with OVCAR-4 ovarian, in the test with M14 melanoma, in the test with CCRF-CEM leukemia and with NCI-H23 lung was more than 20 µM in each case. The GI50 with NCI-H522 lung, in the test on SW-620 colon and with NCI-H226 lung was more than 20 µM each time. For the same compound, the TGI in the test on UACC-257 melanoma, in the test on RXF 393 renal, in the test on OVCAR-4 ovarian, in the test with M14 melanoma, with CCRF-CEM leukemia and in the test with NCI-H23 lung was more than 20 µM in each case. The TGI with NCI-H522 lung, in the test on SW-620 colon and with NCI-H226 lung was more than 20 µM each time.
Take `C[C@]12CC[C@@H](OC(=O)N(CCCl)N=O)C[C@@H]1CC[C@@H]1[C@@H]2CC[C@]2(C)C(=O)CC[C@@H]12`: the GI50 in the test on UACC-257 melanoma was 3.99 µM; in the test on MALME-3M melanoma it was 18.1 µM; in the test on OVCAR-4 ovarian, 14.9 µM; in the test with M14 melanoma, 14.7 µM; with CCRF-CEM leukemia, 14.2 µM; in the test on NCI-H23 lung, 15.3 µM. The GI50 with NCI-H522 lung was 9.06 µM; with SW-620 colon, 7.67 µM; in the test with NCI-H226 lung, 14.6 µM. The TGI is 23.9 µM with UACC-257 melanoma; 50.2 µM in the test with MALME-3M melanoma; 53.4 µM with OVCAR-4 ovarian; 44.9 µM with M14 melanoma; more than 100 µM with CCRF-CEM leukemia; 67.2 µM with NCI-H23 lung. Further, the TGI in the test with NCI-H522 lung came to 30.8 µM; in the test with SW-620 colon, 22.6 µM; in the test on NCI-H226 lung, 31.4 µM.
Take `COC(=O)[C@H]1N[C@@H](C(=O)OC)C23CCC[C@H]2CC[C@]1(C(OC)OC)C3`: the TGI in the test with UACC-257 melanoma, in the test on MALME-3M melanoma, in the test with OVCAR-4 ovarian, with M14 melanoma, with CCRF-CEM leukemia and with NCI-H23 lung was more than 100 µM in each case. The TGI with NCI-H522 lung, with SW-620 colon and in the test on NCI-H226 lung was more than 100 µM each time.
As for `O=C(CSc1nc(-c2ccccc2)c(-c2ccccc2)[nH]1)NNC(=S)Nc1ccccc1`, the TGI with UACC-257 melanoma, in the test with MALME-3M melanoma, with OVCAR-4 ovarian, with M14 melanoma, with CCRF-CEM leukemia and in the test with NCI-H23 lung was more than 100 µM throughout. The TGI in the test on NCI-H522 lung, in the test with SW-620 colon and in the test with NCI-H226 lung was more than 100 µM in each case.
For the compound `CC(/C=C/NNC1=NC(c2ccccc2)C(c2ccccc2)=NN1)Sc1ccccc1N` (centres undefined), the TGI was found to be 19.9 µM in the test with UACC-257 melanoma; 20.9 µM with MALME-3M melanoma; 20 µM in the test on OVCAR-4 ovarian; 10.6 µM with M14 melanoma; 29.7 µM with NCI-H23 lung; 11.7 µM with NCI-H522 lung. Moreover, the TGI with SW-620 colon worked out at 7.75 µM; in the test on NCI-H226 lung, 24.3 µM.
`COc1cc2c3c(ncc2c(OC)c1OC)-c1cc2c(cc1C3)OCO2`: the GI50 was 54 µM in the test on OVCAR-4 ovarian, more than 100 µM with M14 melanoma and 66.4 µM in the test on SW-620 colon. Further, the TGI with OVCAR-4 ovarian, with M14 melanoma and in the test on SW-620 colon was more than 100 µM in each case.
Consider `CC1=NOC(=O)C1N=Nc1ccc(Br)c(C)c1` (centres undefined), for which the TGI with UACC-257 melanoma is 35.4 µM; with MALME-3M melanoma, 33.3 µM; in the test on RXF 393 renal, 43.1 µM; with OVCAR-4 ovarian, 29.3 µM; with M14 melanoma, 36.1 µM; with CCRF-CEM leukemia, 34.3 µM. Moreover, the TGI with NCI-H23 lung came out at 44.2 µM; in the test with SW-620 colon, 34.7 µM; in the test with NCI-H226 lung it was 53.4 µM.
As to `N#Cc1c(C[n+]2ccccc2)c2ccccc2oc1=O`, the TGI in the test with UACC-257 melanoma, with MALME-3M melanoma, in the test with OVCAR-4 ovarian, in the test with M14 melanoma, in the test on CCRF-CEM leukemia and with NCI-H23 lung was more than 100 µM each time. Also, the TGI in the test on NCI-H522 lung, in the test on SW-620 colon and with NCI-H226 lung was more than 100 µM each time.
Regarding `Cc1ccc2sc3ccc(N)cc3c(=O)c2c1`, the TGI in the test with UACC-257 melanoma, in the test with RXF 393 renal, in the test on OVCAR-4 ovarian, in the test on M14 melanoma, with CCRF-CEM leukemia and with NCI-H23 lung was more than 100 µM in each case. Moreover, the TGI with NCI-H522 lung, in the test with SW-620 colon and in the test on NCI-H226 lung was more than 100 µM in each case.
On to `COC(=O)[C@]1(C)C(OC)=CC(=O)C2C1[C@H]1CCC[C@@H]21` (some centres undefined), for which the TGI in the test on UACC-257 melanoma, with MALME-3M melanoma, in the test with RXF 393 renal, in the test with M14 melanoma, in the test on CCRF-CEM leukemia and with NCI-H23 lung was more than 100 µM in each case. In addition, the TGI in the test on NCI-H522 lung and in the test with NCI-H226 lung was more than 100 µM throughout.
